Experimental data reported in paper PMC7873226, “Molecular mechanism and structural basis of small-molecule modulation of the gating of acid-sensing ion channel 1” (Communications Biology, 2021).

Molecular target: T1, rat ASIC1a (Rattus norvegicus, UniProt P55926)
T1 construct: expressed in transfected cells
T1 sequence (P55926 1-526): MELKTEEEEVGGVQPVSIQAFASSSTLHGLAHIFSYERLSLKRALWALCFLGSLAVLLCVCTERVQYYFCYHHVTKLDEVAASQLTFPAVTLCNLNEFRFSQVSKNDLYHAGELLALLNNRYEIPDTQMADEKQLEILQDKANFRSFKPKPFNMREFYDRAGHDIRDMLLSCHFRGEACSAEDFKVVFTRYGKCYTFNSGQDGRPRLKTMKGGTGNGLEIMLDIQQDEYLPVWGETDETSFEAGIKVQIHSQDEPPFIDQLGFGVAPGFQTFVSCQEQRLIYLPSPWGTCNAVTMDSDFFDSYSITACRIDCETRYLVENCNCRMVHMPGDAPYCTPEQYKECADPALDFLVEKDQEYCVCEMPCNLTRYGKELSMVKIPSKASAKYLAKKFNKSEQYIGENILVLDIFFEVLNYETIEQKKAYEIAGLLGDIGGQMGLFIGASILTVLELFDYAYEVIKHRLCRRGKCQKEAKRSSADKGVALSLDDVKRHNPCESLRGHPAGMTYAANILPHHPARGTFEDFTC
Assay: Kinetics of onset of and recovery (wash) from compound inhibition
Type: cell-based
Conditions: for time constant of wash from inhibition: 100 nM; for max - % pH7.4 or 8.2 Control (Y): maximal wash current / ss - % pH7.4 or 8.2 Control (Y): steady-state wash current: after 100 nM; for pH 6.8-induced current, % pH7.4 control / pH 6.8-induced current, % pH8.2 control: wash after 100 nM; for pH 6.8-induced current, % pH7.4 control: holding pH 7.4, one cell; for pH 6.8-induced current, % pH8.2 control: holding pH 8.2, one cell
Experimental: Chinese Hamster Ovary (CHO) cells stably expressing rat ASIC1a were cultured in Ham’s F12, supplemented with 10% FBS, 1% penicillin–streptomycin and 500 µg/mL G418 and incubated at 37 °C with 5% CO2. Transient transfections of rASIC1a and cASIC1 wild-type or mutant channels in CHO cells were performed with Lipofectamine 3000 (Thermo Fisher Scientific) according to the manufacturer’s recommendations. The green fluorescent protein (GFP) cDNA (at 1/10 the amount of channel cDNA) was co-transfected with channel cDNA to aid the identification of transfected cells under the microscope in patch clamp experiments. All cDNAs were sequence verified.
Cells were freshly dissociated with CellStripper (Corning) and dispersed in a chamber on the stage of an inverted microscope. Upon formation of the whole-cell conformation, the cell was lifted from the bottom of the chamber and placed at the tip of a tubing perfusing an extracellular solution containing (in mM): 149 NaCl, 2 CaCl2, 4 KCl, 1 MgCl2, 5 glucose, 10 HEPES, pH 7.4, 310 mOsm/L. Extracellular solutions at more basic or acidic pHs were made by titrating the above pH 7.4 solution with NaOH or HCl (5 mM MES was added to solutions at pH 6.0 and lower). Pipette electrodes were filled with an intracellular solution containing (in mM): 135 KCl, 4 MgATP, 0.3 Na2GTP, 10 EGTA, and 20 HEPES, pH 7.2, 290 mOsm/L.
All recordings were performed at room temperature using an Axopatch 200B amplifier and pClamp 11 software (Molecular Devices). Currents were measured by whole-cell patch clamp, digitized at 10 kHz and lowpass filtered at 2 kHz. Series resistance was 75% compensated. Responses were elicited by rapid perfusion of acidic solutions using the SF-77B Fast-Step Perfusion device (Warner Instruments) for 40 ms once every 30 s (unless indicated otherwise) and recorded till steady state was reached. The holding potential was 0 mV unless indicated otherwise.
Baseline values (i.e., current amplitudes at the conditioning pH) were subtracted to obtain responses evoked by the test pH. Responses were normalized for each cell before averaging (see figure legends for more detail on normalization for each type of experiment). Concentration–response data were fitted to a logistic function of the form: R = (A1–A2)/(1 + (C/C0)^h)+A2, where R is the normalized response, C is either pH or compound concentration, C0 is the pH/concentration at which half-maximal response occurs (pH50 or IC50), h is the Hill coefficient, and A1 and A2 are constants. Kinetic parameters were obtained by fitting the data with either a single or double exponential function. Fitted data are shown as solid, dashed, or dotted curves.

[1] = holding pH 7.4 (source data Fig. 2d)
[2] = holding pH 8.2 (source data Fig. 2d)

time constant of wash from inhibition (wash at pH 7.8, pH 6.0-evoked currents): 12.6 ± 0.6 s
time constant of wash from inhibition (wash at pH 8.2, pH 6.0-evoked currents): 12.7 ± 1.3 s
max - % pH7.4 or 8.2 Control (Y): maximal wash current [1]: 154.4%
ss - % pH7.4 or 8.2 Control (Y): steady-state wash current [1]: 95.3%
max - % pH7.4 or 8.2 Control (Y): maximal wash current [2]: 96.9%
ss - % pH7.4 or 8.2 Control (Y): steady-state wash current [2]: 96.8%
pH 6.8-induced current, % pH7.4 control (t = 10 s): 36.5%
pH 6.8-induced current, % pH7.4 control (t = 20 s): 90.8%
pH 6.8-induced current, % pH7.4 control (t = 30 s): 132.5%
pH 6.8-induced current, % pH7.4 control (t = 40 s): 161.6%
pH 6.8-induced current, % pH7.4 control (t = 50 s): 157.3%
pH 6.8-induced current, % pH7.4 control (t = 60 s): 153.5%
pH 6.8-induced current, % pH7.4 control (t = 70 s): 157.1%
pH 6.8-induced current, % pH7.4 control (t = 80 s): 151.7%
pH 6.8-induced current, % pH7.4 control (t = 90 s): 149.4%
pH 6.8-induced current, % pH7.4 control (t = 100 s): 151.7%
pH 6.8-induced current, % pH7.4 control (t = 110 s): 141.4%
pH 6.8-induced current, % pH7.4 control (t = 120 s): 127.3%
pH 6.8-induced current, % pH7.4 control (t = 130 s): 116.2%
pH 6.8-induced current, % pH7.4 control (t = 140 s): 120.1%
pH 6.8-induced current, % pH7.4 control (t = 150 s): 108.5%
pH 6.8-induced current, % pH7.4 control (t = 160 s): 117.3%
pH 6.8-induced current, % pH7.4 control (t = 170 s): 108.8%
pH 6.8-induced current, % pH7.4 control (t = 180 s): 100.4%
pH 6.8-induced current, % pH7.4 control (t = 190 s): 95.1%
pH 6.8-induced current, % pH7.4 control (t = 200 s): 97.0%
pH 6.8-induced current, % pH7.4 control (t = 210 s): 100.5%
pH 6.8-induced current, % pH7.4 control (t = 220 s): 101.0%
pH 6.8-induced current, % pH8.2 control (t = 10 s): 18.2%
pH 6.8-induced current, % pH8.2 control (t = 20 s): 43.8%
pH 6.8-induced current, % pH8.2 control (t = 30 s): 63.8%
pH 6.8-induced current, % pH8.2 control (t = 40 s): 78.5%
pH 6.8-induced current, % pH8.2 control (t = 50 s): 78.9%
pH 6.8-induced current, % pH8.2 control (t = 60 s): 93.2%
pH 6.8-induced current, % pH8.2 control (t = 70 s): 87.4%
pH 6.8-induced current, % pH8.2 control (t = 80 s): 90.7%
pH 6.8-induced current, % pH8.2 control (t = 90 s): 90.7%
pH 6.8-induced current, % pH8.2 control (t = 100 s): 91.5%
pH 6.8-induced current, % pH8.2 control (t = 110 s): 90.6%
pH 6.8-induced current, % pH8.2 control (t = 120 s): 89.7%
pH 6.8-induced current, % pH8.2 control (t = 130 s): 92.5%
pH 6.8-induced current, % pH8.2 control (t = 140 s): 93.0%
pH 6.8-induced current, % pH8.2 control (t = 150 s): 92.2%
pH 6.8-induced current, % pH8.2 control (t = 160 s): 93.0%
Compound: Cc1cc(N2CC(Oc3cc(F)c4c(N)n[nH]c4c3)C2)c(F)cn1 [JNJ-67869386]
